According to patent US20240109873A1, “ANTAGONISTS OF THE MUSCARINIC ACETYLCHOLINE RECEPTOR M4” (Vanderbilt University, priority 2020, published 2024):

Biological target: T1, human mAChR M4 (Homo sapiens, UniProt P08173)
T1 construct: expressed in transfected cells; host or cells: CHO-K1 (ATCC), co-transfected with chimeric G protein Gqi5
T1 sequence (P08173 1-479): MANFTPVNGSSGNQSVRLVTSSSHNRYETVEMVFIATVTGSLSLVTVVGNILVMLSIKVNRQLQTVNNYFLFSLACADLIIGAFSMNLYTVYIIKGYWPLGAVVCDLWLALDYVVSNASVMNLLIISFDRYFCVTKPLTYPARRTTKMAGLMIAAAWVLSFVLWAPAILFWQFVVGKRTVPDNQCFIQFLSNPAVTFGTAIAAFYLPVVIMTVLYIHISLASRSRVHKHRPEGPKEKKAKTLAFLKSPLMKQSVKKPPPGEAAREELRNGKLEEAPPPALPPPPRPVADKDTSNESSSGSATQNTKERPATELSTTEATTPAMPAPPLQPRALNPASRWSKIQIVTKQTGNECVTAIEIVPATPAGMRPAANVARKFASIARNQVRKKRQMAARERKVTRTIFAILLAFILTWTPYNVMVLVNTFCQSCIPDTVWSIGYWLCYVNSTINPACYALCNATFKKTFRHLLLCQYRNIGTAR
Assay: mAChR M4 cell-based functional assay (calcium flux, antagonism of EC80 acetylcholine response, M4/Gqi5/CHO-K1 cells)
Conditions: for remaining activity at 30 µM: CHO-K1, % ACh maximum at 30 μM, read-out: Human M4 Emin; for IC50: decrease of the response elicited by an EC80 concentration of acetylcholine, CHO-K1 cells, Gqi5
Protocol: Human or rat M4 cDNA, along with the chimeric G protein Gqi5, were transfected into Chinese hamster ovary (CHO-K1) cells purchased from the American Type Culture Collection using Lipofectamine2000. M4/Gqi5/CHO cells were grown in Ham's F-12 medium containing 10% heat-inactivated fetal bovine serum (FBS), 20 mM HEPES, 500 μg/mL G418 sulfate, and 200 μg/mL Hygromycin B.
For high throughput measurement of agonist-evoked increases in intracellular calcium, CHO-K1 cells stably expressing muscarinic receptors were plated in growth medium lacking G418 and hygromycin at 15,000 cells/20 μL/well in Greiner 384-well black-walled, tissue culture (TC)-treated, clear-bottom plates (VWR). Cells were incubated overnight at 37° C. and 5% CO2. The next day, cells were washed using an ELX 405 (BioTek) with assay buffer; the final volume was then aspirated to 20 μL. Next, 20 μL of a 2.3 μM stock of Fluo-4/acetoxymethyl ester (Invitrogen, Carlsbad, CA), prepared as a 2.3 mM stock in DMSO and mixed in a 1:1 ratio with 10% (w/v) Pluronic F-127 and diluted in assay buffer, was added to the wells and the cell plates were incubated for 50 min at 37° C. and 5% CO2. Dye was removed by washing with the ELX 405 and the final volume was aspirated to 20 μL. Compound master plates were formatted in a 10-point concentration-response curve (CRC) format (1:3 dilutions) in 100% DMSO with a starting concentration of 10 or 1 mM using a BRAVO liquid handler (Agilent). Test compound CRCs were then transferred to daughter plates (240 nL) using the Echo acoustic plate reformatter (Labcyte, Sunnyvale, CA) and then diluted into assay buffer (40 μL) to a 2× stock using a Thermo Fisher Combi (Thermo Fisher Scientific, Waltham, MA).
Calcium flux was measured using the Functional Drug Screening System (FDSS) 6000 or 7000 (Hamamatsu Corporation, Tokyo, Japan) as an increase in the fluorescent static ratio. Compounds were applied to cells (20 μL, 2×) using the automated system of the FDSS at 2 seconds into the protocol and the data were collected at 1 Hz. At 143 s, 10 μL of an EC20 concentration of the muscarinic receptor agonist acetylcholine was added (5×), followed by the addition of 12 μL of an EC80 concentration of acetylcholine at the 268 s time point (5×). Agonist activity was analyzed as a concentration-dependent increase in calcium mobilization upon compound addition. Positive allosteric modulator activity was analyzed as a concentration-dependent increase in the EC20 acetylcholine response. Antagonist activity was analyzed as a concentration-dependent decrease in the EC80 acetylcholine response; for the purposes of the tables herein, an IC50 (inhibitory concentration 50) was calculated as a concentration-dependent decrease of the response elicited by an EC80 concentration of acetylcholine. Concentration-response curves were generated using a four-parameter logistical equation in XLFit curve fitting software (IDBS, Bridgewater, NJ) for Excel (Microsoft, Redmond, WA) or Prism (GraphPad Software, Inc., San Diego, CA) or the Dotmatics software platform (Dotmatics, Bishop's Stortford, UK). […]
Compounds were synthesized as described above. Activity (IC50 and Emin) was determined in the mAChR M4 cell-based functional assay as described above and the data are shown in Table 2.

| Compound | remaining activity at 30 µM [%] | IC50 [nM] | Human M4 Emin (% ACh maximum at 30 μM) [%] |
| --- | --- | --- | --- |
| [2H]C1([2H])CC(C([2H])([2H])N2C[C@H]3C[C@H](Nc4nnc(-c5cnccc5C(F)(F)F)cc4OC)C[C@H]3C2)CC([2H])([2H])O1 [Compound 22, (3aR,5s,6aS)-N-(4-methoxy-6-(4-(trifluoromethyl)pyridin-3-yl)pyridazin-3-yl)-2-((tetrahydro-2H-pyran-4-yl-2,2,6,6-d4)methyl-d2)octahydrocyclopenta[c]pyrrol-5-amine] | 2 | 4.5 |  |
| [2H]C1([2H])CC(CN2C[C@H]3C[C@H](Nc4nnc(-c5cnccc5C(F)(F)F)cc4OC)C[C@H]3C2)CC([2H])([2H])O1 [Compound 23, (3aR,5s,6aS)-N-(4-methoxy-6-(4-(trifluoromethyl)pyridin-3-yl)pyridazin-3-yl)-2-((tetrahydro-2H-pyran-4-yl-2,2,6,6-d4)methyl)octahydrocyclopenta[c]pyrrol-5-amine] | 2 | 3.9 |  |
| [2H]C([2H])([C@@H]1CCCOC1)N1C[C@H]2C[C@H](Nc3ccc(-c4cnccc4C(F)(F)F)nn3)C[C@H]2C1 [Compound 24, (3aR,5s,6aS)-2-(((S)-tetrahydro-2H-pyran-3-yl)methyl-d2)-N-(6-(4-(trifluoromethyl)pyridin-3-yl)pyridazin-3-yl)octahydrocyclopenta[c]pyrrol-5-amine] | 3 | 5.5 |  |
| [2H]C([2H])([C@H]1CCCOC1)N1C[C@H]2C[C@H](Nc3ccc(-c4cnccc4C(F)(F)F)nn3)C[C@H]2C1 [Compound 25, (3aR,5s,6aS)-2-(((R)-tetrahydro-2H-pyran-3-yl)methyl-d2)-N-(6-(4-(trifluoromethyl)pyridin-3-yl)pyridazin-3-yl)octahydrocyclopenta[c]pyrrol-5-amine] | 6 | 35 |  |
| [2H]C([2H])(C1CCOCC1)N1C[C@H]2C[C@H](Nc3nnc(-c4cnccc4C(F)(F)F)cc3C(F)F)C[C@H]2C1 [Compound 26, (3aR,5s,6aS)-N-(4-(difluoromethyl)-6-(4-(trifluoromethyl)pyridin-3-yl)pyridazin-3-yl)-2-((tetrahydro-2H-pyran-4-yl)methyl-d2)octahydrocyclopenta[c]pyrrol-5-amine] | 6 | 1.3 |  |
| [2H]C([2H])(C1CCCOCC1)N1C[C@H]2C[C@H](Nc3ccc(-c4cnccc4C(F)(F)F)nn3)C[C@H]2C1 (stereo partly drawn) [Compound 28, (3aR,5s,6aS)-2-(oxepan-4-ylmethyl-d2)-N-(6-(4-(trifluoromethyl)pyridin-3-yl)pyridazin-3-yl)octahydrocyclopenta[c]pyrrol-5-amine] | 4 | 2.7 |  |
| [2H]C([2H])(CC1CCOCC1)N1C[C@H]2C[C@H](Nc3ccc(-c4cnccc4C(F)(F)F)nn3)C[C@H]2C1 [Compound 31, (3aR,5s,6aS)-2-(2-(tetrahydro-2H-pyran-4-yl)ethyl-1,1-d2)-N-(6-(4-(trifluoromethyl)pyridin-3-yl)pyridazin-3-yl)octahydrocyclopenta[c]pyrrol-5-amine] | 5 | 0.8 |  |
| [2H]C([2H])(C1CC(C)(C)OC(C)(C)C1)N1C[C@H]2C[C@H](Nc3ccc(-c4cnccc4C(F)(F)F)nn3)C[C@H]2C1 [Compound 32, (3aR,5s,6aS)-2-((2,2,6,6-tetramethyltetrahydro-2H-pyran-4-yl)methyl-d2)-N-(6-(4-(trifluoromethyl)pyridin-3-yl)pyridazin-3-yl)octahydrocyclopenta[c]pyrrol-5-amine] | 14 | 24 |  |
| [2H]C([2H])(C1CCOC(C)(C)C1)N1C[C@H]2C[C@H](Nc3ccc(-c4cnccc4C(F)(F)F)nn3)C[C@H]2C1 (stereo partly drawn) [Compound 33, (3aR,5s,6aS)-2-((2,2-dimethyltetrahydro-2H-pyran-4-yl)methyl-d2)-N-(6-(4-(trifluoromethyl)pyridin-3-yl)pyridazin-3-yl)octahydrocyclopenta[c]pyrrol-5-amine] |  | 4.2 | 7 |
